# Assay results published in US20240277722A1, “CANCER THERAPY USING A COMBINATION OF CDK7 INHIBITOR WITH AN ANTI-CANCER AGENT” (Aurigene Oncology Limited, priority 2021, published 2024).
# Values joined by “and” are separate entries in the source; they are usually repeats but may differ in a detail not shown here. Equal values may be shown once.
# Key:
# [1] = test system: MCF-7 cells; assay: MCF-7 cell proliferation, CTG reagent, 6-day treatment, single agents and combination (CompuSyn synergy analysis); format: cell-based
# Protocol: The effect of 6-day compound treatment on cell proliferation was measured using CTG reagent.
# [2] = test system: Z-138 cells; assay: Z-138 cell proliferation, CTG reagent, 3-day treatment, single agents and combination (CompuSyn synergy analysis); format: cell-based; conditions: for % Inhibition in proliferation: 3 days
# Protocol: Z-138 cells were treated with serial dilutions of Compound-44A (CDK7 inhibitor), serial dilutions of venetoclax individually and in combination for 3 days. The effect of 3-day compound treatment on cell proliferation was measured using CTG reagent. Percentage inhibition of cell proliferation in individual (Compound-44A, venetoclax) and combination treatments (Compound-44A+venetoclax) were analyzed using CompuSyn software to assess synergy.
smiles,measurement,setting,value
"C[C@]12CC[C@@H]3c4ccc(O)cc4C[C@@H](CCCCCCCCC[S+]([O-])CCCC(F)(F)C(F)(F)F)[C@H]3[C@@H]1CC[C@@H]2O (stereo partly shown) [Fulvestrant, fulvestrant]",% Inhibition in proliferation,"[1]; Fulvestrant 0.000000164 nM + Compound-44A 0.00 nM, 6 days",2.8%
same,% Inhibition of proliferation,"[1]; Fulvestrant 0.000000164 nM, Day-6",0.6% and 2.7% and 4.9%
same,% Inhibition in proliferation,"[1]; Fulvestrant 0.000000819 nM + Compound-44A 0.00 nM, 6 days",10.4%
same,% Inhibition in proliferation,"[1]; Fulvestrant 0.000004096 nM + Compound-44A 0.00 nM, 6 days",5.0%
same,% Inhibition of proliferation,"[1]; Fulvestrant 0.000004096 nM, Day-6",6.6% and 7.7% and 0.7%
same,% Inhibition in proliferation,"[1]; Fulvestrant 0.00002048 nM + Compound-44A 0.00 nM, 6 days",7.1%
same,% Inhibition of proliferation,"[1]; Fulvestrant 0.00002048 nM, Day-6",7.2% and 5.9%
same,% Inhibition in proliferation,"[1]; Fulvestrant 0.0001024 nM + Compound-44A 0.00 nM, 6 days",0.9%
same,% Inhibition of proliferation,"[1]; Fulvestrant 0.0001024 nM, Day-6",4.2% and −1.2% and −0.1%
same,% Inhibition in proliferation,"[1]; Fulvestrant 0.000512 nM + Compound-44A 0.00 nM, 6 days",7.5%
same,% Inhibition of proliferation,"[1]; Fulvestrant 0.000512 nM, Day-6",3.2% and 7.4% and 11.8%
same,% Inhibition in proliferation,"[1]; Fulvestrant 0.00256 nM + Compound-44A 0.00 nM, 6 days",3.4%
same,% Inhibition in proliferation,"[1]; Fulvestrant 0.0128 nM + Compound-44A 0.00 nM, 6 days",1.5%
same,% Inhibition in proliferation,"[1]; Fulvestrant 0.064 nM + Compound-44A 0.00 nM, 6 days",−1.2%
same,% Inhibition of proliferation,"[1]; Fulvestrant 0.064 nM, Day-6",3.9% and −2.5% and −5%
same,% Inhibition in proliferation,"[1]; Fulvestrant 0.32 nM + Compound-44A 0.00 nM, 6 days",24.2%
same,% Inhibition of proliferation,"[1]; Fulvestrant 0.32 nM, Day-6",27.7% and 23.3%
same,% Inhibition in proliferation,"[1]; Fulvestrant 1.6 nM + Compound-44A 0.00 nM, 6 days",79.8%
same,% Inhibition of proliferation,"[1]; Fulvestrant 1.6 nM, Day-6",78.6% and 80%
same,% Inhibition in proliferation,"[1]; Fulvestrant 8 nM + Compound-44A 0.00 nM, 6 days",87.5%
same,% Inhibition of proliferation,"[1]; Fulvestrant 8 nM, Day-6",88.4% and 86.3%
same,% Inhibition in proliferation,"[1]; Fulvestrant 40 nM + Compound-44A 0.00 nM, 6 days",86.9%
same,% Inhibition of proliferation,"[1]; Fulvestrant 40 nM, Day-6",86%
same,% Inhibition in proliferation,"[1]; Fulvestrant 1000 nM + Compound-44A 0.00 nM, 6 days",88.7%
same,% Inhibition of proliferation,"[1]; Fulvestrant 1000 nM, Day-6",90.2%
same,% Inhibition in proliferation,"[1]; Fulvestrant 3000 nM + Compound-44A 0.00 nM, 6 days",90.0%
same,% Inhibition of proliferation,"[1]; Fulvestrant 3000 nM, Day-6",90.6% and 89.5%
same,% Inhibition in proliferation,"[1]; Fulvestrant 10000 nM + Compound-44A 0.00 nM, 6 days",95.0%
same,% Inhibition of proliferation,"[1]; Fulvestrant 10000 nM, Day-6",95.7% and 95.1%
same,inhibition at 20.48 fM,"[1]; Homo sapiens, MCF7, Fulvestrant 0.00002048 nM, Day-6",8.1%
same,inhibition at 0.00032 µM,"[1]; Homo sapiens, MCF7, Fulvestrant 0.32 nM, Day-6",21.6%
same,inhibition at 0.0016 µM,"[1]; Homo sapiens, MCF7, Fulvestrant 1.6 nM, Day-6",80.9%
same,inhibition at 0.008 µM,"[1]; Homo sapiens, MCF7, Fulvestrant 8 nM, Day-6",87.8%
same,inhibition at 0.04 µM,"[1]; Homo sapiens, MCF7, Fulvestrant 40 nM, Day-6",85.9%
same,inhibition at 0.2 µM,"[1]; Homo sapiens, MCF7, Fulvestrant 200 nM, Day-6",85.8%
same,inhibition at 1 µM,"[1]; Homo sapiens, MCF7, Fulvestrant 1000 nM, Day-6",88.8%
same,inhibition at 3 µM,"[1]; Homo sapiens, MCF7, Fulvestrant 3000 nM, Day-6",89.9%
same,inhibition at 10 µM,"[1]; Homo sapiens, MCF7, Fulvestrant 10000 nM, Day-6",94.3%
same,inhibition of proliferation in MCF-7 cells,"[1]; single agent, serial dilutions, 6 days",dose dependent inhibition of proliferation
"CC1(C)CCC(CN2CCN(c3ccc(C(=O)NS(=O)(=O)c4ccc(NCC5CCOCC5)c([N+](=O)[O-])c4)c(Oc4cnc5[nH]ccc5c4)c3)CC2)=C(c2ccc(Cl)cc2)C1 [Venetoclax, venetoclax]",inhibition at 0.004572 µM,"[2]; Homo sapiens, Z-138, Venetoclax 0.004572 μM, Day-3",7.4%
same,inhibition at 0.013717 µM,"[2]; Homo sapiens, Z-138, Venetoclax 0.013717 μM, Day-3",18.9%
same,inhibition at 0.041152 µM,"[2]; Homo sapiens, Z-138, Venetoclax 0.041152 μM, Day-3",35.6%
same,inhibition at 0.123457 µM,"[2]; Homo sapiens, Z-138, Venetoclax 0.123457 μM, Day-3",49.8%
same,inhibition at 0.37037 µM,"[2]; Homo sapiens, Z-138, Venetoclax 0.370370 μM, Day-3",63.8%
same,inhibition at 1.11111 µM,"[2]; Homo sapiens, Z-138, Venetoclax 1.111111 μM, Day-3",75.6%
same,inhibition at 3.33333 µM,"[2]; Homo sapiens, Z-138, Venetoclax 3.333333 μM, Day-3",90.5%
same,inhibition at 10 µM,"[2]; Homo sapiens, Z-138, Venetoclax 10.000000 μM, Day-3",99.7%
same,inhibition at 30 µM,"[2]; Homo sapiens, Z-138, Venetoclax 30.000000 μM, Day-3",99.9%
same,% Inhibition in proliferation,[2]; Venetoclax 0.000006 μM + Compound-44A 0.0 μM,−3.0%
same,% Inhibition of proliferation,"[2]; Venetoclax 0.000006 μM, Day-3",1.6% and −2.7% and −8.2%
same,% Inhibition in proliferation,[2]; Venetoclax 0.000019 μM + Compound-44A 0.0 μM,−10.0%
same,% Inhibition in proliferation,[2]; Venetoclax 0.000169 μM + Compound-44A 0.0 μM,−9.0%
same,% Inhibition in proliferation,[2]; Venetoclax 0.000508 μM + Compound-44A 0.0 μM,−10.0%
same,% Inhibition in proliferation,[2]; Venetoclax 0.001524 μM + Compound-44A 0.0 μM,−0.2%
same,% Inhibition in proliferation,[2]; Venetoclax 0.004572 μM + Compound-44A 0.0 μM,8.0%
same,% Inhibition of proliferation,"[2]; Venetoclax 0.004572 μM, Day-3",6.3% and 11.2%
same,% Inhibition in proliferation,[2]; Venetoclax 0.013717 μM + Compound-44A 0.0 μM,19.0%
same,% Inhibition of proliferation,"[2]; Venetoclax 0.013717 μM, Day-3",19.7%
same,% Inhibition in proliferation,[2]; Venetoclax 0.041152 μM + Compound-44A 0.0 μM,33.0%
same,% Inhibition of proliferation,"[2]; Venetoclax 0.041152 μM, Day-3",29.6% and 34.7%
same,% Inhibition in proliferation,[2]; Venetoclax 0.123457 μM + Compound-44A 0.0 μM,53.0%
same,% Inhibition of proliferation,"[2]; Venetoclax 0.123457 μM, Day-3",53.8% and 55.1%
same,% Inhibition in proliferation,[2]; Venetoclax 0.370370 μM + Compound-44A 0.0 μM,65.0%
same,% Inhibition of proliferation,"[2]; Venetoclax 0.370370 μM, Day-3",65.2% and 66.6%
same,% Inhibition in proliferation,[2]; Venetoclax 1.111111 μM + Compound-44A 0.0 μM,76.0%
same,% Inhibition of proliferation,"[2]; Venetoclax 1.111111 μM, Day-3",73.5% and 78.1%
same,% Inhibition in proliferation,[2]; Venetoclax 3.333333 μM + Compound-44A 0.0 μM,92.0%
same,% Inhibition of proliferation,"[2]; Venetoclax 3.333333 μM, Day-3",91.6% and 92.6%
same,% Inhibition in proliferation,[2]; Venetoclax 10.0 μM + Compound-44A 0.0 μM,100.0%
same,% Inhibition of proliferation,"[2]; Venetoclax 10.000000 μM, Day-3",99.8% and 100%
same,% Inhibition in proliferation,[2]; Venetoclax 30.0 μM + Compound-44A 0.0 μM,100.0%
same,% Inhibition of proliferation,"[2]; Venetoclax 30.000000 μM, Day-3",100.1%
same,% Inhibition in proliferation,[2]; Venetoclax […] + Compound-44A 0.0 μM,−10.0%
